# Reference: patent publication US4451284A, “Derivatives of 2-nitro-4- or -5-pyridyloxyphenylphosphonic acid, the preparation thereof, the use thereof as herbicides and/or plant growth regulators” (Ciba-Geigy Corporation, priority 1981, dated 1984)
# Like-named read-outs stand apart in the source and are kept apart here.
# Columns and labels:
# Setaria [1] = experiment: Postemergence herbicidal action (contact herbicide), compounds of formula I, Setaria; format: in vivo; details: 4 kg a.i./ha, 15 days
# Description: (§1) The weeds to be tested are sprayed postemergence (in the 4- to 6-leaf stage) with an aqueous dispersion prepared from compounds of formula I formulated as (a) a 10% or (b) a 25% wettable powder or (c) a 25% emulsifiable concentrate, at a rate of application of 4 kg a.i./ha. The plants are kept at 24°-26° C. and 45-60% relative humidity. The test is evaluated 15 days later in accordance with the same rating as used in the preemergence test (Example 19).
# Erysiphe graminis = experiment: Action against Erysiphe graminis on barley; format: in vivo; details: 0.02% spray mixture, 10 days
# Description: Barley plants about 8 cm in height are sprayed with a spray mixture (0.02% of compound of formula I) prepared from a 25% emulsifiable concentrate. After 3-4 hours the plants are dusted with conidia of Erysiphe graminis. The infected barley plants are then stood in a greenhouse at about 22° C. Evaluation of fungus attack is made 10 days later.
# weeds = experiment: Postemergence herbicidal action (contact herbicide), compounds of formula I, overall; format: in vivo; details: 4 kg a.i./ha, 15 days later
# Description: as §1
# Sinapis [2] = experiment: Postemergence herbicidal action (contact herbicide), compounds of formula I, Sinapis; format: in vivo; set-up: key: 1: plants have not germinated or have completely died off; 2-3: very pronounced action; 4-6: medium action; 7-8: slight action; 9: no action (as untreated controls); details: 4 kg a.i./ha, 15 days
# Description: as §1
# Solanum [3] = experiment: Postemergence herbicidal action (contact herbicide), compounds of formula I, Solanum; format: in vivo; set-up: key: 1: plants have not germinated or have completely died off; 2-3: very pronounced action; 4-6: medium action; 7-8: slight action; 9: no action (as untreated controls); details: 4 kg a.i./ha, 15 days
# Description: as §1
# mould fungi = experiment: Action against mould fungus on moist maize; format: in vivo, mixed population of mould fungi; details: for reduction of fungus attack compared with untreated controls: 0.06% a.i.
# Text: Dry maize grains (portions of 80 g each) are thoroughly mixed in sealable plastic beakers with an aqueous suspension prepared from a 25% wettable powder formulation of a compound of formula I. The application is so adjusted as to give a concentration of 0.06% of active ingredient, based on the weight of dry maize. A moistened slip of paper provides for a saturated humid atmosphere in the beakers which are filled with maize and then sealed. A mixed population of mould fungi develops spontaneously after incubation for 2-3 weeks at about 20° C. in the maize samples which have been treated only with water. The effectiveness of the test compounds is assessed by evaluating the degree of fungus development after 3 weeks.
# A visual assessment is made after each month according to the same criteria as specified above.
# soya bean plants = experiment: Regulation of the growth of soya bean plants; details: controls = 100%
# cotton = experiment: Stimulation of root growth in cotton (plastic boxes, 30 days); format: in vivo; details: for root dry weight expressed as % of controls / root length expressed as % controls: 30 days, controls = 100%
# Description: (§2) Compounds of formula I are employed in the form of aqueous dispersions prepared from a 25% wettable powder. The test is carried out with seeds which are sown in plastic boxes measuring 5×35×60 cm and filled with soil (15 seeds per box). The seeds are treated before sowing at rates of application of 45-500 mg per kg of seeds. The boxes are kept under controlled conditions in a climatic chamber. After 30 days, the plants are carefully washed with water to remove the soil and the length and dry weight of the roots are assessed.
# wheat [4] = experiment: Stimulation of root growth in wheat (plastic boxes, 30 days); format: in vivo; details: for root dry weight expressed as % of controls / root length expressed as % of controls: 30 days, controls = 100%
# Description: as §2
# wheat [5] = experiment: Stimulation of root growth in wheat (plastic cylinders, 10 days); format: in vivo; details: seed treatment 4-130 mg per kg of seeds or soil spray 0.3 to 3 kg/ha; after 10 days
# Description: Compounds of formula I are applied in the form of aqueous dispersions prepared from a 25% wettable powder. The test is carried out with seeds which are sown in plastic cylinders measuring 5×30 cm and filled with soil (10 seeds per cylinder). The seeds are (a) treated before sowing at rates of application of 4-130 mg per kg of seeds or (b) are untreated and the soil is sprayed with a dispersion of the active ingredient at rates of application of 0.3 to 3 kg/ha. The cylinders are kept under controlled conditions in a climatic chamber. After 10 days, the seedlings are carefully washed with water to remove the soil and the length and dry weight of the roots are assessed.
# Xanthomonas oryzae [6] = format: in vivo; details: for bactericidal properties in words: residual-protective action
# Setaria [7] = experiment: Preemergence herbicidal action (inhibition of germination), Setaria; format: in vivo; set-up: key to preemergence herbicidal action rating: 1: plants have not germinated or have completely died off; 2-3: very pronounced action; 4-6: medium action; 7-8: slight action; 9: no action (as untreated controls); details: 4 kg a.i./ha, after 3 weeks
# Description: (§3) In a greenhouse, immediately after sowing seeds of test plants in seed dishes, the surface of the soil is treated with an aqueous dispersion prepared from a 10% wettable powder formulation of test compounds of formula I. Concentrations of 4 kg of active ingredient per hectare are used. The seed dishes are kept in the greenhouse at 22°-25° C. and 50-70% relative humidity, and the test is evaluated after 3 weeks in accordance with the following rating: […]
# Sinapis [8] = experiment: Preemergence herbicidal action (inhibition of germination), Sinapis; format: in vivo; details: 4 kg a.i./ha, after 3 weeks
# Description: as §3
# Stellaria = experiment: Preemergence herbicidal action (inhibition of germination), Stellaria; format: in vivo; set-up: key to preemergence herbicidal action rating: 1: plants have not germinated or have completely died off; 2-3: very pronounced action; 4-6: medium action; 7-8: slight action; 9: no action (as untreated controls); details: 4 kg a.i./ha, after 3 weeks
# Description: as §3
# Solanum [9] = experiment: Postemergence herbicidal action (contact herbicide), compounds of formula II, Solanum; format: in vivo; set-up: key to postemergence herbicidal action rating: 1: plants completely withered; 2-3: very pronounced action; 4-6: medium action; 7-8: insignificant action; 9: no action (as untreated controls); details: 4 kg a.i./ha, 15 days; for postemergence herbicidal action rating: 25% wettable powder; for herbicidal action in words: postemergence
# Description: (§4) The plants for testing are sprayed postemergence (in the 4- to 6-leaf stage) at a concentration of 4 kg a.i./ha with an aqueous dispersion prepared from a compound of formula II formulated as a 25% wettable powder. The plants are then kept at 24°-26° C. and 45-60% relative humidity. The test is evaluated 15 days later according to the following rating: […]
# Phaseolus = experiment: Postemergence herbicidal action (contact herbicide), compounds of formula II, Phaseolus; format: in vivo; set-up: key to postemergence herbicidal action rating: 1: plants completely withered; 2-3: very pronounced action; 4-6: medium action; 7-8: insignificant action; 9: no action (as untreated controls); details: 4 kg a.i./ha, 15 days; for postemergence herbicidal action rating: 25% wettable powder; for herbicidal action in words: postemergence
# Description: as §4
# Xanthomonas oryzae [10] = format: in vivo; details: for bactericidal activity: based on the volume of the soil
# [11] = formulation (c) 25% emulsifiable concentrate
# [12] = seed treatment 45-500 mg per kg of seeds, after 30 days
# [13] = formulation (a) 10% wettable powder
# [14] = formulation (b) 25% wettable powder
structure (smiles),measurement,setting,value
COP(=O)(OC)c1cc(Oc2ccc(C(F)(F)F)cn2)ccc1[N+](=O)[O-] [Compound 1],postemergence herbicidal action rating,Setaria [1]; [11],4
same,reduction of fungus attack compared with untreated controls,"Erysiphe graminis; 25% emulsifiable concentrate, untreated = 100% attack",80-95%
same,effectiveness in words,Erysiphe graminis,particularly effective
same,postemergence effectiveness in words,weeds,very effective
same,postemergence herbicidal action rating,Sinapis [2]; [11],3
same,postemergence herbicidal action rating,Solanum [3]; [11],4
"CCOP(=O)(OCC)c1cc(Oc2ncc(C(F)(F)F)cc2Cl)ccc1[N+](=O)[O-] [Compound 7, Diethyl 2-nitro-5-(3'-chloro-5'-trifluoromethyl-2'-pyridyloxy)phenylphosphonate]",postemergence herbicidal action rating,Setaria [1]; [11],3
same,postemergence effectiveness in words,weeds,very effective
same,postemergence herbicidal action rating,Sinapis [2]; [11],2
same,postemergence herbicidal action rating,Solanum [3]; [11],1
O=[N+]([O-])c1ccc(Oc2ccc(C(F)(F)F)cn2)cc1P(=O)(O)O [Compound 3],reduction of fungus attack compared with untreated controls,mould fungi; after 3 weeks,80-95%
same,reduction of fungus attack compared with untreated controls,mould fungi; after 3 weeks and a further month,80-95%
same,reduction of fungus attack compared with untreated controls,"mould fungi; after 3 weeks, a further month and yet a further month",50-80%
same,fungicidal activity in words,mould fungi; 0.06% of active ingredient on dry maize,particularly pronounced fungicidal activity
same,Weight of pods as % of controls,soya bean plants; 0.08 kg a.i./ha,119 % of controls
same,no. of pods as % of controls,soya bean plants; 0.08 kg a.i./ha,107 % of controls
same,Weight of pods as % of controls,soya bean plants; 0.40 kg a.i./ha,119 % of controls
same,no. of pods as % of controls,soya bean plants; 0.40 kg a.i./ha,119 % of controls
same,Weight of pods as % of controls,soya bean plants; 0.80 kg a.i./ha,135 % of controls
same,no. of pods as % of controls,soya bean plants; 0.80 kg a.i./ha,109 % of controls
same,Weight of pods as % of controls,soya bean plants; 4.00 kg a.i./ha,108 % of controls
same,no. of pods as % of controls,soya bean plants; 4.00 kg a.i./ha,98 % of controls
same,root dry weight expressed as % of controls,cotton; 45 mg a.i./kg of seeds,105 % of controls
same,root length expressed as % controls,cotton; 45 mg a.i./kg of seeds,122 % controls
same,root dry weight expressed as % of controls,cotton; 150 mg a.i./kg of seeds,97 % of controls
same,root length expressed as % controls,cotton; 150 mg a.i./kg of seeds,111 % controls
same,root dry weight expressed as % of controls,cotton; 500 mg a.i./kg of seeds,129 % of controls
same,root length expressed as % controls,cotton; 500 mg a.i./kg of seeds,122 % controls
same,root growth stimulation effectiveness in words,cotton; [12],every effective
same,root dry weight expressed as % of controls,wheat [4]; 45 mg a.i./kg of seeds,105 % of controls
same,root length expressed as % of controls,wheat [4]; 45 mg a.i./kg of seeds,98 % of controls
same,root dry weight expressed as % of controls,wheat [4]; 150 mg a.i./kg of seeds,112 % of controls
same,root length expressed as % of controls,wheat [4]; 150 mg a.i./kg of seeds,107 % of controls
same,root dry weight expressed as % of controls,wheat [4]; 500 mg a.i./kg of seeds,110 % of controls
same,root length expressed as % of controls,wheat [4]; 500 mg a.i./kg of seeds,107 % of controls
same,root growth stimulation effectiveness in words,wheat [4]; [12],every effective
same,root growth stimulation effectiveness in words,wheat [5],very effective
"CCOP(=O)(OCC)c1cc(Oc2ncc(Cl)cc2Cl)ccc1[N+](=O)[O-] [Compound 9, Diethyl 2-nitro-5-(3',5'-dichloro-2'-pyridyloxy)phenylphosphonate]",postemergence herbicidal action rating,Setaria [1]; [11],2
same,postemergence effectiveness in words,weeds,very effective
same,postemergence herbicidal action rating,Sinapis [2]; [11],2
same,postemergence herbicidal action rating,Solanum [3]; [11],1
"COP(=O)(OC)c1cc(Oc2ncc(C(F)(F)F)cc2Cl)ccc1[N+](=O)[O-] [Compound 6, Dimethyl 2-nitro-5-(3'-chloro-5'-trifluoromethyl-2'-pyridyloxy)phenylphosphonate]",action,Xanthomonas oryzae [6]; concentration of 0.02%,over 95%
same,bactericidal properties in words,Xanthomonas oryzae [6],pronounced bactericidal properties
same,preemergence herbicidal action rating,Setaria [7]; 10% wettable powder,1
same,preemergence effectiveness in words,Setaria [7],very effective
same,postemergence herbicidal action rating,Setaria [1]; [13],3
same,preemergence herbicidal action rating,Sinapis [8]; 10% wettable powder,2
same,preemergence effectiveness in words,Sinapis [8],very effective
same,preemergence herbicidal action rating,Stellaria; 10% wettable powder,1
same,preemergence effectiveness in words,Stellaria,very effective
same,postemergence effectiveness in words,weeds,very effective
same,postemergence herbicidal action rating,Sinapis [2]; [13],1
same,postemergence herbicidal action rating,Solanum [3]; [13],1
"O=[N+]([O-])c1ccc(Oc2ccc(C(F)(F)F)cn2)cc1[N+](=O)[O-] [II-3, 1,2-dinitro-4-(5'-trifluoromethyl-2'-pyridyloxy)benzene]",postemergence herbicidal action rating,Solanum [9],3
same,herbicidal action in words,Solanum [9],excellent herbicidal action
same,postemergence herbicidal action rating,Phaseolus,1
same,herbicidal action in words,Phaseolus,excellent herbicidal action
"COP(=O)(OC)c1cc(Oc2ncc(Cl)cc2Cl)ccc1[N+](=O)[O-] [Compound 4, Dimethyl 2-nitro-5-(3',5'-dichloro-2'-pyridyloxy)phenylphosphonate]",action,Xanthomonas oryzae [6]; concentration of 0.0006%,80-95%
same,action,Xanthomonas oryzae [6]; concentration of 0.006%,over 95%
same,bactericidal properties in words,Xanthomonas oryzae [6],pronounced bactericidal properties
same,bactericidal activity,Xanthomonas oryzae [10]; concentration of 0.0006%,50-80%
same,bactericidal activity,Xanthomonas oryzae [10]; concentration of 0.006%,over 95%
same,bactericidal activity in words,Xanthomonas oryzae [10]; systemic action,pronounced bactericidal activity
same,postemergence herbicidal action rating,Setaria [1]; [14],3
same,postemergence effectiveness in words,weeds,very effective
same,postemergence herbicidal action rating,Sinapis [2]; [14],3
same,postemergence herbicidal action rating,Solanum [3]; [14],2
"O=[N+]([O-])c1ccc(Oc2ncc(C(F)(F)F)cc2Cl)cc1[N+](=O)[O-] [II-2, 1,2-dinitro-4-(3'-chloro-5'-trifluoromethyl-2'-pyridyloxy)benzene]",postemergence herbicidal action rating,Solanum [9],1
same,herbicidal action in words,Solanum [9],excellent herbicidal action
same,postemergence herbicidal action rating,Phaseolus,1
same,herbicidal action in words,Phaseolus,excellent herbicidal action
